The values below come from patent publication US7592373B2 (Boehringer Ingelheim International GmbH, priority 2003, dated 2009).

The structures appear in SMILES notation. Counter-ions that a name gives are not always drawn.

In turn, `CCN(CC)CCOc1ccc(NC(=O)C#Cc2ccc(-c3ccc(Cl)cc3)cc2)cc1Cl.Cl` displayed a melting point of 226 to 233 °C.
Under `O=C(C#Cc1ccc(C(F)(F)F)cc1Cl)Nc1ccc2c(ccn2CCN2CCCC2)c1` [Example 4.11, 3-(2-chloro-4-trifluoromethylphenyl)propynoic acid-[1-(2-pyrrolidin-1-ylethyl)-1H-indol-5-yl]amide] stands 200 to 205 °C.
Under `CN(C(=O)C#Cc1ccc(CN2CCC(N3CCCC3)CC2)cc1)c1ccc(-c2ccc(Cl)cc2)cc1` (as salt: trifluoroacetate) [Example 1.24, 3-[4-(4-pyrrolidin-1-ylpiperidin-1-ylmethyl)phenyl]propynoic acid-(4′-chlorobiphenyl-4-yl)methylamideditrifluoroacetate] stands 161 to 164 °C; under `CN1CCN(Cc2ccc(NC(=O)C#Cc3ccc(-c4ccc(Cl)cc4)cc3)cc2)CC1` [Example 3.8, 3-(4′-chlorobiphenyl-4-yl)propynoic acid-[4-(4-methylpiperazin-1-ylmethyl)phenyl]amide], 182 to 185 °C; under `CN(CCOc1ccccc1)Cc1ccc(CCC(=O)Nc2ccc(-c3ccc(Cl)cc3)cc2)cc1` [Example 6.20, N-(4′-chlorobiphenyl-4-yl)-3-(4-{[methyl-(2-phenoxyethyl)amino]methyl}phenyl)propionamide], 122 to 124 °C.
`O=C(CCc1ccc(CNCc2ccccc2)cc1)Nc1ccc(-c2ccc(Cl)cc2)cc1` [Example 6.38, 3-[4-(benzylaminomethyl)phenyl]-N-(4′-chlorobiphenyl-4-yl)propionamide]: the melting point amounted to 176 °C.
Compound `NC(=O)C1CCN(Cc2ccc(/C=C/C(=O)Nc3ccc(-c4ccc(Cl)cc4)cc3)cc2)CC1` [Example 5.6, 1-{4-[(E)-2-(4′-chlorobiphenyl-4-ylcarbamoyl)vinyl]benzyl}piperidine-4-carboxylic acid amide] gave a melting point of 254 to 255 °C.
For the compound `O=C(C#Cc1ccc(-c2ccccc2)cc1Cl)Nc1ccc(CN2CCCCC2)cc1` (as salt: hydrochloride) [Example 3.33, 3-(3-chlorobiphenyl-4-yl)propynoic acid-(4-piperidin-1-ylmethylphenyl)amide hydrochloride], the melting point was in the range of 260 to 265 °C.
As to `CC1CCC(N(C)Cc2ccc(/C=C/C(=O)Nc3ccc(-c4ccc(Cl)cc4)cc3)cc2)CC1` (centres unmarked) [Example 5.29, (E)-N-(4′-chlorobiphenyl-4-yl)-3-(4-{[methyl-(4-methylcyclohexyl)amino]methyl}phenyl)acrylamide], the melting point is 227 to 258 °C.
With `CC1CN(Cc2ccc(CCC(=O)Nc3ccc(-c4ccc(Cl)cc4)cc3)cc2)CC(C)O1` (centres unmarked) [Example 6.21, N-(4′-chlorobiphenyl-4-yl)-3-[4-(2,6-dimethylmorpholin4-ylmethyl)phenyl]propionamide], the melting point lay in the range of 158.5 to 160.5 °C.
Under `CC#Cc1ccc(NC(=O)C#Cc2ccc(CCN3CCCC3)cc2)cc1` [Example 2.5, 3-[4-(2-pyrrolidin-1-ylethyl)phenyl]propynoic acid-(4-prop-1-ynylphenyl)amide] stands 198 to 199 °C.
`COC1CCN(Cc2ccc(/C=C/C(=O)Nc3ccc(-c4ccc(Cl)cc4)cc3)cc2)CC1` [Example 5.4, (E)-N-(4′-chlorobiphenyl-4-yl)-3-[4-(4-methoxypiperidin-1-ylmethyl)phenyl]acrylamide] returned a melting point of 205 to 206 °C.
Under `CCN(CC)CCOc1ccc(NC(=O)C#Cc2ccc(C(F)(F)F)cc2Cl)cc1` [Example 3.38, 3-(2-chloro-4-trifluoromethylphenyl)propynoic acid-[4-(2-diethylaminoethoxy)phenyl]amide] stands 194 to 197 °C; under `CCN(CC)CCCOc1ccc(NC(=O)C#Cc2ccc(C(F)(F)F)cc2Cl)cc1Cl` (as salt: formate) [Example 4.18, 3-(2-chloro-4-trifluoromethylphenyl)propynoic acid-[3-chloro-4-(3-diethylaminopropoxy)phenyl]amide formate], 112 to 116 °C; under `CC1CCN(Cc2ccc(/C=C/C(=O)Nc3ccc(-c4ccc(Cl)cc4)cc3)cc2)CC1` [Example 5.2, (E)-N-(4′-chlorobiphenyl-4-yl)-3-[4-(4-methylpiperidin-1-ylmethyl)phenyl]acrylamide], 207 to 208 °C.
To `CC1CCN(C2(c3ccc(C#CC(=O)Nc4ccc(-c5ccc(Cl)cc5)cc4)cc3)CC2)CC1` [Example 1.424, 3-{4-[1-(4-methylpiperidin-1-yl)cyclopropyl]phenyl}propynoic acid(4′-chlorobiphenyl-4-yl)amide] belongs 128 to 129 °C; to `COCCN(C)Cc1ccc(CCC(=O)Nc2ccc(-c3ccc(Cl)cc3)cc2)cc1` [Example 6.17, N-(4′-chlorobiphenyl-4-yl)-3-(4-{[(2-methoxyethyl)methylamino]methyl}phenyl)propionamide], 138 °C; to `CN(CCCN)Cc1ccc(CCC(=O)Nc2ccc(-c3ccc(Cl)cc3)cc2)cc1` [Example 6.27, 3-(4-{[(3-aminopropyl)methylamino]methyl}phenyl)-N-(4′-chlorobiphenyl-4-yl)propionamide], 165 °C.
To `O=C(C#Cc1ccc(CN2CCCC2)cc1)Nc1ccc(-c2ccc(Cl)cc2)cc1F` [Example 1.17, 3-(4-pyrrolidin-1-ylmethylphenyl)propynoic acid-(4′-chloro-3-fluorobiphenyl-4-yl)amide] belongs 136 °C.
In the case of `O=C(C#Cc1ccc(CCN2CCCC2)cc1)Nc1ccc(-c2ccccc2)cc1` [Example 2.1, 3-[4-(2-pyrrolidin-1-ylethyl)phenyl]propynoic Acid biphenyl-4-ylamide], the melting point lay in the range of 180 to 189 °C.
To `COCCN(Cc1ccc(/C=C/C(=O)Nc2ccc(-c3ccc(Cl)cc3)cc2)cc1)CC(C)(C)O` [Example 5.27, (E)-N-(4′-chlorobiphenyl-4-yl)-3-(4-{[(2-hydroxy-2-methylpropyl)-(2-methoxyethyl)amino]methyl}phenyl)acrylamide] belongs 125 to 126 °C; to `NC(=O)C1CCN(Cc2ccc(CCC(=O)Nc3ccc(-c4ccc(Cl)cc4)cc3)cc2)CC1` [Example 6.5, 1-{4-[2-(4′-chlorobiphenyl-4-ylcarbamoyl)ethyl]benzyl}piperidine-4-carboxylic acid amide], 240 to 241 °C; to `O=C(CCc1ccc(CNCCC2CCCCC2)cc1)Nc1ccc(-c2ccc(Cl)cc2)cc1` [Example 6.35, N-(4′-chlorobiphenyl-4-yl)-3-{4-[(cyclohexylethylamino)methyl]phenyl}propionamide], 149 to 150.5 °C.
Under `CCN(CC)CCOc1ccc(NC(=O)C#Cc2ccc(C(F)(F)F)cc2Cl)cc1F` [Example 4.25, 3-(2-chloro-4-trifluoromethylphenyl)propynoic acid-[4-(3-diethylaminoethoxy)-3-fluorophenyl]amide] stands 85 to 88 °C; under `C[C@@H]1C[C@H](C)CN(Cc2ccc(CCC(=O)Nc3ccc(-c4ccc(Cl)cc4)cc3)cc2)C1` [Example 6.26, N-(4′-chlorobiphenyl-4-yl)-3-[4-((3S,5R)-3,5-dimethylpiperidin-1-ylmethyl)phenyl]propionamide], 164 to 169 °C.
`CC1CN(Cc2ccc(/C=C/C(=O)Nc3ccc(-c4ccc(Cl)cc4)cc3)cc2)CC(C)O1` (centres unmarked) [Example 5.23, (E)-N-(4′-chlorobiphenyl-4-yl)-3-[4-(2,6-dimethylmorpholin-4-ylmethyl)phenyl]acrylamide]: the melting point was 212 to 213 °C.
On to `O=C(CCc1ccc(CN2CCCC2)cc1)Nc1ccc(-c2ccc(Cl)cc2)cc1` [Example 6.11, N-(4′-chlorobiphenyl-4-yl)-3-(4-pyrrolidin-1-ylmethylphenyl)propionamide], for which the melting point was in the range of 183 to 184 °C.
In turn, `CN(Cc1ccncc1)Cc1ccc(CCC(=O)Nc2ccc(-c3ccc(Cl)cc3)cc2)cc1` [Example 6.32, N-(4′-chlorobiphenyl-4-yl)-3-{4-[(methylpyridin-4-ylmethylamino)methyl]phenyl}propionamide] came in with a melting point of 102 °C.
`O=C(C#Cc1ccc(C(F)(F)F)cc1Cl)Nc1ccc(OCCn2cnnc2)cc1` [Example 3.44, 3-(2-chloro-4-trifluoromethylphenyl)propynoic acid-[4-(2-[1.2.4]triazol-4-ylethoxy)phenyl]amide] displayed a melting point of 223 to 227 °C.
The compound `O=C(C#Cc1ccc(CCN2CCCC2)cc1)Nc1ccc(-c2ccc(Cl)cc2)cc1` [Example 2.4, 3-[4-(2-pyrrolidin-1-ylethyl)phenyl]propynoic acid-(4′-chlorobiphenyl-4-yl)amide] registered a melting point of 217 to 218 °C.
On to `COc1cc(NC(=O)C#Cc2ccc(C(F)(F)F)cc2Cl)ccc1OCCN1CC(C)CC(C)C1` (centres unmarked) [Example 4.271, 3-(2-chloro-4-trifluoromethylphenyl)propynoic acid-{4-[2-(3,5-dimethylpiperidin-1-yl)ethoxy]-3-methoxyphenyl}amide], for which the melting point lay in the range of 196 to 201 °C.
Turning to `O=C(CCc1ccc(CN2CCOCC2)cc1)Nc1ccc(-c2ccc(Cl)cc2)cc1` [Example 6.4, N-(4′-chlorobiphenyl-4-yl)-3-(4-morpholin-4-ylmethylphenyl)propionamide], the melting point lay in the range of 193 to 194 °C.
In turn, `CC(C)(O)C1CCN(Cc2ccc(C#CC(=O)Nc3ccc(-c4ccc(Cl)cc4)cc3)cc2)CC1` [Example 1.34, 3-{4-[4-(1-hydroxy-1-methylethyl)piperidin-1-ylmethyl]phenyl}propynoic acid-(4′-chlorobiphenyl-4-yl)amide] had a melting point of 194 to 195 °C.
`CCN(CC)CCc1ccc(NC(=O)C#Cc2ccc(Cl)cc2Cl)cc1` (as salt: hydrochloride) [Example 3.34, 3-(2,4-dichlorophenyl)propynoic acid-[4-(2-diethylaminoethyl)phenyl]amide hydrochloride] showed a melting point of 204 to 208 °C.
Consider `O=C(/C=C/c1ccc(CN2CCC(CO)CC2)cc1)Nc1ccc(-c2ccc(Cl)cc2)cc1` [Example 5.8, (E)-N-(4′-chlorobiphenyl-4-yl)-3-[4-(4-hydroxymethylpiperidin-1-ylmethyl)phenyl]acrylamide], for which the melting point was in the range of 190 to 191 °C.

As usually defined, the melting point is the temperature, or range, at which the solid turns liquid.
